# Test results from US11825838B2, “Tricyclic carboxamides for controlling arthropods” (Bayer CropScience Aktiengesellschaft, priority 2017, dated 2023).
# Experiments:
# Type in all cases: in vivo
# Ctenocephalides felis = Ctenocephalides felis oral test; settings: application rate 100 ppm in citrated cattle blood, after 2 days
# Procedure: Ctenocephalides felis—Oral Test
# (§1) Solvent: dimethyl sulfoxide
# To produce a suitable active ingredient formulation, 10 mg of active ingredient are mixed with 0.5 ml of dimethyl sulfoxide. Dilution with citrated cattle blood gives the desired concentration.
# About 20 unfed adult cat fleas (Ctenocephalides felis) are placed into a chamber which is closed at the top and bottom with gauze. A metal cylinder whose bottom end is closed with parafilm is placed onto the chamber. The cylinder contains the blood/active ingredient formulation, which can be imbibed by the fleas through the parafilm membrane.
# After 2 days, the rate of extermination in % is determined. 100% means that all of the fleas have been killed; 0% means that none of the fleas have been killed.
# Lucilia cuprina = Lucilia cuprina test; settings: application rate 100 ppm, L1 larvae, after 2 days
# Procedure: as §1
# (§2) To produce a suitable active ingredient formulation, 10 mg of active ingredient are mixed with 0.5 ml of dimethyl sulfoxide, and the concentrate is diluted with water to the desired concentration.
# About 20 L1 larvae of the Australian sheep blowfly (Lucilia cuprina) are transferred into a test vessel containing minced horsemeat and the active compound preparation of the desired concentration.
# After 2 days, the rate of extermination in % is determined. 100% means that all the larvae have been killed; 0% means that no larvae have been killed.
# Phaedon cochleariae = Phaedon cochleariae spray test (PHAECO); settings: for efficacy / pest or weed control at 100 g/ha: application rate 100 g/ha, spray, after 7 days; for pest or weed control at 100 g/ha: read-out: efficacy
# Procedure: Phaedon cochleariae—Spray Test
# (§3) To produce a suitable active ingredient formulation, 1 part by weight of active ingredient is dissolved with the specified parts by weight of solvent and made up to the desired concentration with water containing an emulsifier concentration of 1000 ppm. To produce further test concentrations, the formulation is diluted with emulsifier-containing water.
# After 7 days, the efficacy in % is determined. 100% means that all the beetle larvae have been killed; 0% means that no beetle larvae have been killed.
# Phaedon cochleariae—Spray Test (PHAECO)
# as §3, with “compound” for “ingredient”
# Discs of Chinese cabbage leaves (Brassica pekinensis) are sprayed with an active compound formulation of the desired concentration and, after drying, populated with larvae of the mustard beetle (Phaedon cochleariae).
# After the desired time, the efficacy in % is determined. 100% means that all the beetle larvae have been killed; 0% means that no beetle larvae have been killed.
# Boophilus microplus = Boophilus microplus injection test; settings: application rate 20 μg/animal, assessed after 7 days by laying of fertile eggs
# Procedure: Boophilus microplus—Injection Test
# as §1
# To produce a suitable active compound preparation, 10 mg of active compound are mixed with 0.5 ml of solvent and the concentrate is diluted to the desired concentration with solvent.
# 1 μl of the active ingredient solution is injected into the abdomen of 5 engorged adult female cattle ticks (Boophilus microplus). The animals are transferred into dishes and kept in a climate-controlled room.
# (§4) Efficacy is assessed after 7 days by laying of fertile eggs. Eggs which are not visibly fertile are stored in a climate-controlled cabinet until the larvae hatch after about 42 days. An efficacy of 100% means that none of the ticks has laid any fertile eggs; 0% means that all the eggs are fertile.
# Musca domestica = Musca domestica test; settings: application rate 100 ppm, adult houseflies, after 2 days
# Procedure: as §1, §2
# Vessels containing a sponge treated with sugar solution and the active ingredient formulation of the desired concentration are populated with 10 adult houseflies (Musca domestica).
# After 2 days, the rate of extermination in % is determined. 100% means that all of the flies have been killed; 0% means that none of the flies have been killed.
# Spodoptera frugiperda = Spodoptera frugiperda spray test (SPODFR); settings: for pest or weed control at 100 g/ha / efficacy: application rate 100 g/ha, spray, after 7 days; for pest or weed control at 100 g/ha: read-out: efficacy
# Procedure: Spodoptera frugiperda—Spray Test
# as §3
# Leaf discs of maize (Zea mays) are sprayed with an active ingredient formulation of the desired concentration and, after drying, populated with caterpillars of the armyworm (Spodoptera frugiperda).
# After 7 days, the efficacy in % is determined. 100% means that all the caterpillars have been killed; 0% means that no caterpillar has been killed.
# Spodoptera frugiperda—Spray Test (SPODFR)
# as §3, with “compound” for “ingredient”
# Leaf discs of maize (Zea mays) are sprayed with an active compound formulation of the desired concentration and, after drying, populated with caterpillars of the armyworm (Spodoptera frugiperda).
# After the desired time, the efficacy in % is determined. 100% means that all the caterpillars have been killed; 0% means that no caterpillar has been killed.
# Rhipicephalus sanguineus = Rhipicephalus sanguineus in vitro contact test with adult brown dog ticks; settings: application rate 5 μg/cm^2 (=500 g/ha), after 48 h, adult dog ticks dead or moribund
# Procedure: Rhipicephalus sanguineus—In Vitro Contact Tests with Adult Brown Dog Ticks
# For the coating of the test tubes, 9 mg of active ingredient are first dissolved in 1 ml of acetone p.a. and then diluted to the desired concentration with acetone p.a. 250 μl of the solution are distributed homogeneously on the inner walls and the base of a 25 ml glass tube by turning and rocking on an orbital shaker (rocking rotation at 30 rpm for 2 h). With 900 ppm of active ingredient solution and internal surface area 44.7 cm^2, given homogeneous distribution, an area-based dose of 5 μg/cm^2 is achieved.
# After the solvent has evaporated off, the tubes are populated with 5-10 adult dog ticks (Rhipicephalus sanguineus), sealed with a perforated plastic lid and incubated in a horizontal position in the dark at room temperature and ambient humidity. After 48 h, efficacy is determined. To this end, the ticks are knocked to the base of the tube and incubated on a hotplate at 45-50° C. for not more than 5 min. Ticks which remain motionless on the base or move in such an uncoordinated manner that they are unable to deliberately avoid the heat by climbing upwards are considered to be dead or moribund.
# An efficacy of 100% means that all the ticks were dead or moribund. 0% efficacy means that none of the ticks were harmed.
# [1] = test system: cattle ticks (Boophilus microplus) Parkhurst strain, SP-resistant; assay: Boophilus microplus dip test; settings: application rate 100 ppm, assessed after 7 days by laying of fertile eggs
# Procedure: Boophilus microplus—Dip Test
# Test animals: cattle ticks (Boophilus microplus) Parkhurst strain, SP-resistant
# as §1
# 10 mg of active ingredient are dissolved in 0.5 ml of dimethyl sulfoxide. To produce a suitable formulation, the active ingredient solution is diluted with water to the concentration desired in each case. This active ingredient formulation is pipetted into tubes. 8-10 engorged adult female cattle ticks (Boophilus microplus) are transferred into a further tube with holes. The tube is immersed into the active ingredient formulation, and all the ticks are completely wetted. After the liquid has run out, the ticks are transferred on filter discs into plastic dishes and stored in a climate-controlled room.
# as §4
# Tetranychus urticae = Tetranychus urticae spray test, OP-resistant (TETRUR); settings: for efficacy: spray, after 6 days
# Procedure: Tetranychus urticae—Spray Test, OP-Resistant
# as §3
# Discs of bean leaves (Phaseolus vulgaris) infested with all stages of the greenhouse red spider mite (Tetranychus urticae) are sprayed with an active compound preparation of the desired concentration.
# After 6 days, the efficacy in % is determined. 100% means that all the spider mites have been killed; 0% means that no spider mites have been killed.
# Tetranychus urticae—Spray Test; OP-Resistant (TETRUR)
# as §3, with “compound” for “ingredient”
# Discs of bean leaves (Phaseolus vulgaris) infested with all stages of the greenhouse red spider mite (Tetranychus urticae) are sprayed with an active compound formulation of the desired concentration.
# After the desired time, the efficacy in % is determined. 100% means that all the spider mites have been killed; 0% means that no spider mites have been killed.
# Myzus persicae = Myzus persicae spray test (MYZUPE)
# Procedure: Myzus persicae—Spray Test
# as §3
# Discs of Chinese cabbage leaves (Brassica pekinensis) infested by all stages of the green peach aphid (Myzus persicae) are sprayed with an active compound preparation of the desired concentration.
# After 5 days, the efficacy in % is determined. 100% means that all the aphids have been killed; 0% means that no aphids have been killed.
# Myzus Persicae—Spray Test (MYZUPE)
# as §3, with “compound” for “ingredient”
# Discs of Chinese cabbage leaves (Brassica pekinensis) infested with all stages of the green peach aphid (Myzus persicae) are sprayed with an active compound formulation of the desired concentration.
# After the desired time, the efficacy in % is determined. 100% means that all the aphids have been killed; 0% means that no aphids have been killed.
smiles,measurement,setting,value
O=C(NC1CC1)c1csc(-c2cnn(-c3c(Cl)cc(C(F)(C(F)(F)F)C(F)(F)F)cc3Cl)c2)n1 [I-T1-8],efficacy (rate of extermination),Ctenocephalides felis,100%
same,efficacy (rate of extermination),Lucilia cuprina,80%
same,efficacy,Phaedon cochleariae,83%
O=C(NC1CC1)c1nc(-c2cnn(-c3c(Cl)cc(C(F)(C(F)(F)F)C(F)(F)F)cc3Cl)c2)sc1Cl [I-T1-7],efficacy,Boophilus microplus,100%
same,efficacy,Phaedon cochleariae,83%
"N#CC1(NC(=O)c2csc(-c3cnn(-c4c(Cl)cc(C(F)(C(F)(F)F)C(F)(F)F)cc4Cl)c3)n2)CC1 [I-T1-5, N-(1-cyanocyclopropyl)-2-{1-[2,6-dichloro-4-(1,1,1,2,3,3,3-heptafluoropropan-2-yl)phenyl]-1H-pyrazol-4-yl}-1,3-thiazole-4-carboxamide]",efficacy (rate of extermination),Ctenocephalides felis,100%
same,efficacy (rate of extermination),Lucilia cuprina,80%
same,efficacy (rate of extermination),Musca domestica,90%
same,pest or weed control at 100 g/ha,"Phaedon cochleariae; Phaedon cochleariae, 168 h",100%
"CN(C(=O)c1cc(-c2cnn(-c3c(Cl)cc(C(F)(C(F)(F)F)C(F)(F)F)cc3Cl)c2)sc1Cl)C1(C#N)CC1 [I-T1-18, 2-chloro-N-(1-cyanocyclopropyl)-5-{1-[2,6-dichloro-4-(1,1,1,2,3,3,3-heptafluoropropan-2-yl)phenyl]-1H-pyrazol-4-yl}-N-methylthiophene-3-carboxamide]",pest or weed control at 100 g/ha,"Phaedon cochleariae; Phaedon cochleariae, 168 h",100%
same,pest or weed control at 100 g/ha,"Spodoptera frugiperda; Spodoptera frugiperda, 168 h",100%
O=C(NC1CC1)c1cc(-c2cnn(-c3c(Cl)cc(C(F)(C(F)(F)F)C(F)(F)F)cc3Cl)c2)sc1I [I-T1-14],efficacy,Rhipicephalus sanguineus,100%
same,efficacy,[1],100%
same,efficacy,Boophilus microplus,100%
same,efficacy (rate of extermination),Ctenocephalides felis,100%
same,efficacy (rate of extermination),Lucilia cuprina,100%
same,efficacy (rate of extermination),Musca domestica,100%
same,efficacy,Phaedon cochleariae,100%
same,efficacy,Spodoptera frugiperda,100%
same,efficacy,Tetranychus urticae; application rate 100 g/ha,100%
N#CC1(NC(=O)c2cc(-c3cnn(-c4c(Cl)cc(C(F)(C(F)(F)F)C(F)(F)F)cc4Cl)c3)sc2Br)CC1 [I-T1-2],efficacy,Rhipicephalus sanguineus,100%
same,efficacy,[1],100%
same,efficacy,Boophilus microplus,100%
same,efficacy (rate of extermination),Ctenocephalides felis,100%
same,efficacy (rate of extermination),Lucilia cuprina,100%
same,efficacy (rate of extermination),Musca domestica,100%
same,efficacy,"Myzus persicae; application rate 100 g/ha, spray, after 5 days",100%
same,efficacy,Phaedon cochleariae,100%
same,efficacy,Spodoptera frugiperda,100%
same,efficacy,Tetranychus urticae; application rate 20 g/ha,90%
N#CC1(NC(=O)c2cc(-c3cnn(-c4c(Cl)cc(C(F)(C(F)(F)F)C(F)(F)F)cc4Cl)c3)sc2I)CC1 [I-T1-15],efficacy,Rhipicephalus sanguineus,80%
same,efficacy,Boophilus microplus,100%
same,efficacy (rate of extermination),Ctenocephalides felis,100%
same,efficacy (rate of extermination),Lucilia cuprina,100%
same,efficacy (rate of extermination),Musca domestica,100%
same,efficacy,Phaedon cochleariae,100%
same,efficacy,Spodoptera frugiperda,100%
same,efficacy,Tetranychus urticae; application rate 20 g/ha,90%
same,efficacy,Tetranychus urticae; application rate 100 g/ha,100%
"CS(=O)(=O)NC(=O)c1csc(-c2cnn(-c3cccnc3)c2)n1 [Example No. 36 WO2012/000896, reference compound]",Emax at 100 g/ha,"Myzus persicae; Myzus persicae, 144 h, MYZUPE, 100 g ai/ha, 6 dat, read-out: % efficacy dat",0%
same,Emax at 500 g/ha,"Phaedon cochleariae; Phaedon cochleariae, 168 h, PHAECO, 500 g ai/ha, 7 dat, read-out: % efficacy dat",0%
same,Emax at 500 g/ha,"Spodoptera frugiperda; Spodoptera frugiperda, 168 h, SPODFR, 500 g ai/ha, 7 dat, read-out: % efficacy dat",0%
same,Emax at 500 g/ha,"Tetranychus urticae; Tetranychus urticae, 144 h, TETRUR, 500 g ai/ha, 6 dat, read-out: % efficacy dat",0%
Cn1cc(-c2cnn(-c3c(Cl)cc(C(F)(C(F)(F)F)C(F)(F)F)cc3Cl)c2)cc1C(=O)NC1(C#N)CC1 [I-T1-4],efficacy,Boophilus microplus,100%
same,efficacy (rate of extermination),Ctenocephalides felis,100%
same,efficacy (rate of extermination),Lucilia cuprina,100%
same,efficacy,Phaedon cochleariae,100%
O=C(NCc1ccccc1)c1cc(-c2cnn(-c3c(Cl)cc(C(F)(C(F)(F)F)C(F)(F)F)cc3Cl)c2)sc1Br [I-T1-6],efficacy,Boophilus microplus,100%
same,efficacy (rate of extermination),Ctenocephalides felis,100%
same,efficacy (rate of extermination),Lucilia cuprina,95%
same,efficacy,Spodoptera frugiperda,100%
"N#CC1(NC(=O)c2cc(-c3cnn(-c4c(Cl)cc(C(F)(C(F)(F)F)C(F)(F)F)cc4Cl)c3)sc2Cl)CC1 [I-T1-17, 2-chloro-N-(1-cyanocyclopropyl)-5-{1-[2,6-dichloro-4-(1,1,1,2,3,3,3-heptafluoropropan-2-yl)phenyl]-1H-pyrazol-4-yl}thiophene-3-carboxamide]",pest or weed control at 100 g/ha,"Phaedon cochleariae; Phaedon cochleariae, 168 h",100%
same,pest or weed control at 100 g/ha,"Spodoptera frugiperda; Spodoptera frugiperda, 168 h",100%
same,efficacy,Tetranychus urticae; application rate 20 g/ha,100%
same,efficacy,Tetranychus urticae; application rate 100 g/ha,100%
